Experiments:
[1] = tested on: Methicillin Resistant Staphylococcus aureus strain USA 200; experiment: Minimum inhibitory concentration (MIC), CLSI broth micro-dilution, S. aureus; format: cell-based; details: Staphylococcus aureus, MRSA / USA200; Table 6; MRSA USA 200; cation adjusted Mueller Hinton Broth + 0.002% Tween-80; 35° C., 22 hours
Experimental: In vitro antimicrobial activity of each compound was determined by measuring minimal inhibitor concentrations (MICs) using the broth micro-dilution technique as approved by the Clinical and Laboratory Standards Institute (CLSI) (Methods for Dilution Antimicrobial Susceptibility Tests for Bacteria that Grow Aerobically; Approved Standard-Eighth Edition. CLSI document M07-A8. Wayne, PA: Clinical and Laboratroy Standards; 2009). Antibacterial activity was measure against two strains of bacteria: a Methicillin Resistant Staphylococcus aureus strain USA 200, (S. aureus) and Escherichia coli ATCC 25922 (E. coli), a clinically relevant Gram-negative strain. Cells were inoculated onto plates of Trypyticase Soy Agar or Luria Agar respectively and grown at 35° C. for 20 hours. Inocula suspensions were prepared by scraping cells into 1 mL of testing media (cation adjusted Mueller Hinton Broth supplemented with 0.002% v/v Tween-80) and diluting to a final OD600nm of 0.01.
Test compounds were prepared in DMSO at a concentration of 10 mg/mL. In protocol 1, the compound stocks were diluted into testing media at a concentration of 64 µg/ml and serial 2-fold dilutions were made in the same media, in 96-well U bottom microtiter dishes, for a total of 10 compound concentrations. In protocol 2, the compound stocks were diluted into testing media at a concentration of 4 µg/mL and serial 2-fold dilutions were made in the same media, in 96-well U bottom microtiter dishes, for a total of 10 compound concentrations. In protocol 3, compound stocks were diluted into testing media at a concentration of 0.5 μg/mL, with serial 2-fold dilutions conducted as described above. In protocol 4, compound stocks were diluted into testing media at a concentration of […], with serial 2-fold dilutions conducted as described above. Inocula suspensions were added to the 2-fold serial dilutions of test compounds to a final density of GD OD600nm of 0.0005 and incubated at 35° C. for 22 hours.

[2] = tested on: Escherichia coli ATCC 25922; experiment: Minimum inhibitory concentration (MIC), CLSI broth micro-dilution, E. coli; format: cell-based; details: Escherichia coli, ATCC25922, 22 h, Table 6, cation adjusted Mueller Hinton Broth + 0.002% Tween-80, 35° C.
How it was run: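 Antibacterial potency is measured as MIC by the CLSI broth dilution method. Bacteria at OD600 0.0005 in Tween-80-supplemented cation-adjusted Mueller Hinton broth face ten twofold compound dilutions for 22 h at 35° C.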

Row | SMILES | MIC [1] [µM] | MIC [2] [µM]
1 | CCCCCc1ncc(-c2ccc(C(=O)N[C@@H](CCN)C(=O)N(C)[C@@H]3C(=O)N[C@@H](C)C(=O)N[C@H](C(=O)NCC#N)Cc4ccc(OCCN)c(c4)-c4cc3ccc4OCCN)c(C)n2)cn1 (racemic) [Compound 209, rac-(8S,11S,14S)-3,18-bis(2-aminoethoxy)-N-(cyanomethyl)-11-methyl-14-[methyl-[rac-(2S)-4-amino-2-[[2-methyl-6-(2-pentylpyrimidin-5-yl)pyridine-3-carbonyl]amino]butanoyl]amino]-10,13-dioxo-9,12-diazatricyclo[13.3.1.12,6]icosa-1(18),2(20),3,5,15(19),16-hexaene-8-carboxamide] | 0.26 | 2.1
2 | Cc1nc(C#CC(C)(C)C)ccc1C(=O)N[C@@H](CCN)C(=O)N(C)[C@@H]1C(=O)N[C@@H](C)C(=O)N[C@H](C(=O)NCC#N)Cc2ccc(OCCN)c(c2)-c2cc1ccc2OCCN (racemic) [Compound 213, rac-(8S,11S,14S)-3,18-bis(2-aminoethoxy)-N-(cyanomethyl)-11-methyl-14-[methyl-[rac-(2S)-4-amino-2-[[6-(3,3-dimethylbut-1-ynyl)-2-methyl-pyridine-3-carbonyl]amino]butanoyl]amino]-10,13-dioxo-9,12-diazatricyclo[13.3.1.12,6]icosa-1(18),2(20),3,5,15(19),16-hexaene-8-carboxamide] | 0.28 | 1.1
3 | Cc1nc(C#CC2CCCCC2)ccc1C(=O)N[C@@H](CCN)C(=O)N(C)[C@@H]1C(=O)N[C@@H](C)C(=O)N[C@H](C(=O)NCC#N)Cc2ccc(OCCN)c(c2)-c2cc1ccc2OCCN (racemic) [Compound 214, rac-(8S,11S,14S)-3,18-bis(2-aminoethoxy)-N-(cyanomethyl)-11-methyl-14-[methyl-[rac-(2S)-4-amino-2-[[6-(2-cyclohexylethynyl)-2-methyl-pyridine-3-carbonyl]amino]butanoyl]amino]-10,13-dioxo-9,12-diazatricyclo[13.3.1.12,6]icosa-1(18),2(20),3,5,15(19),16-hexaene-8-carboxamide] | 0.034 | 0.41
4 | Cc1nc(-c2ccc3c(c2)CCCC3)ncc1C(=O)N[C@@H](CCN)C(=O)N(C)[C@@H]1C(=O)N[C@@H](C)C(=O)N[C@H](C(=O)NCC#N)Cc2ccc(OCCN)c(c2)-c2cc1ccc2OCCN (racemic) [Compound 216, rac-(8S,11S,14S)-3,18-bis(2-aminoethoxy)-N-(cyanomethyl)-11-methyl-14-[methyl-[rac-(2S)-4-amino-2-[(4-methyl-2-tetralin-6-yl-pyrimidine-5-carbonyl)amino]butanoyl]amino]-10,13-dioxo-9,12-diazatricyclo[13.3.1.12,6]icosa-1(18),2(20),3,5,15(19),16-hexaene-8-carboxamide] | 0.0084 | 0.2
5 | Cc1nc(-c2ccc(CC3CCC3)cc2)ncc1C(=O)N[C@@H](CCN)C(=O)N(C)[C@@H]1C(=O)N[C@@H](C)C(=O)N[C@H](C(=O)NCC#N)Cc2ccc(OCCN)c(c2)-c2cc1ccc2OCCN (racemic) [Compound 217, rac-(8S,11S,14S)-3,18-bis(2-aminoethoxy)-N-(cyanomethyl)-11-methyl-14-[methyl-[rac-(2S)-4-amino-2-[[2-[4-(cyclobutylmethyl)phenyl]-4-methyl-pyrimidine-5-carbonyl]amino]butanoyl]amino]-10,13-dioxo-9,12-diazatricyclo[13.3.1.12,6]icosa-1(18),2(20),3,5,15(19),16-hexaene-8-carboxamide] | 0.0082 | 0.099
6 | Cc1nc(-c2ccc(CC3CCCC3)cc2)ncc1C(=O)N[C@@H](CCN)C(=O)N(C)[C@@H]1C(=O)N[C@@H](C)C(=O)N[C@H](C(=O)NCC#N)Cc2ccc(OCCN)c(c2)-c2cc1ccc2OCCN (racemic) [Compound 218, rac-(8S,11S,14S)-3,18-bis(2-aminoethoxy)-N-(cyanomethyl)-11-methyl-14-[methyl-[rac-(2S)-4-amino-2-[[2-[4-(cyclopentylmethyl)phenyl]-4-methyl-pyrimidine-5-carbonyl]amino]butanoyl]amino]-10,13-dioxo-9,12-diazatricyclo[13.3.1.12,6]icosa-1(18),2(20),3,5,15(19),16-hexaene-8-carboxamide] | 0.012 | 0.097
7 | Cc1nc(-c2ccc(C3(C(F)(F)F)CC3)cc2)ncc1C(=O)N[C@@H](CCN)C(=O)N(C)[C@@H]1C(=O)N[C@@H](C)C(=O)N[C@H](C(=O)NCC#N)Cc2ccc(OCCN)c(c2)-c2cc1ccc2OCCN (racemic) [Compound 219, rac-(8S,11S,14S)-3,18-bis(2-aminoethoxy)-N-(cyanomethyl)-11-methyl-14-[methyl-[rac-(2S)-4-amino-2-[[4-methyl-2-[4-[1-(trifluoromethyl)cyclopropyl]phenyl]pyrimidine-5-carbonyl]amino]butanoyl]amino]-10,13-dioxo-9,12-diazatricyclo[13.3.1.12,6]icosa-1(18),2(20),3,5,15(19),16-hexaene-8-carboxamide] | 0.012 | 0.13
8 | Cc1nc(-c2ccc(CCC(C)C)cc2)ncc1C(=O)N[C@@H](CCN)C(=O)N(C)[C@@H]1C(=O)N[C@@H](C)C(=O)N[C@H](C(=O)NCC#N)Cc2ccc(OCCN)c(c2)-c2cc1ccc2OCCN (racemic) [Compound 220, rac-(8S,11S,14S)-3,18-bis(2-aminoethoxy)-N-(cyanomethyl)-11-methyl-14-[methyl-[rac-(2S)-4-amino-2-[[2-(4-isopentylphenyl)-4-methyl-pyrimidine-5-carbonyl]amino]butanoyl]amino]-10,13-dioxo-9,12-diazatricyclo[13.3.1.12,6]icosa-1(18),2(20),3,5,15(19),16-hexaene-8-carboxamide] | 0.0062 | 0.099
9 | CCc1ccc(-c2ncc(C(=O)N[C@@H](CCN)C(=O)N(C)[C@@H]3C(=O)N[C@@H](C)C(=O)N[C@H](C(=O)NCC#N)Cc4ccc(OCCN)c(c4)-c4cc3ccc4OCCN)c(C)n2)c2ccccc12 (racemic) [Compound 221, rac-(8S,11S,14S)-3,18-bis(2-aminoethoxy)-N-(cyanomethyl)-11-methyl-14-[methyl-[rac-(2S)-4-amino-2-[[2-(4-ethyl-1-naphthyl)-4-methyl-pyrimidine-5-carbonyl]amino]butanoyl]amino]-10,13-dioxo-9,12-diazatricyclo[13.3.1.12,6]icosa-1(18),2(20),3,5,15(19),16-hexaene-8-carboxamide] | 0.024 | 1
10 | CCCc1ccc(-c2ncc(C(=O)N[C@@H](CCN)C(=O)N(C)[C@@H]3C(=O)N[C@@H](C)C(=O)N[C@H](C(=O)NCC#N)Cc4ccc(OCCN)c(c4)-c4cc3ccc4OCCN)c(C)n2)c(C)c1 (racemic) [Compound 222, rac-(8S,11S,14S)-3,18-bis(2-aminoethoxy)-N-(cyanomethyl)-11-methyl-14-[methyl-[rac-(2S)-4-amino-2-[[4-methyl-2-(2-methyl-4-propyl-phenyl)pyrimidine-5-carbonyl]amino]butanoyl]amino]-10,13-dioxo-9,12-diazatricyclo[13.3.1.12,6]icosa-1(18),2(20),3,5,15(19),16-hexaene-8-carboxamide] | 0.033 | 0.53
11 | CCCCc1ccc(-c2ncc(C(=O)N[C@@H](CCN)C(=O)N(C)[C@@H]3C(=O)N[C@@H](C)C(=O)N[C@H](C(=O)NCC#N)Cc4ccc(OCCN)c(c4)-c4cc3ccc4OCCN)c(C)n2)c(C)c1 (racemic) [Compound 223, rac-(8S,11S,14S)-3,18-bis(2-aminoethoxy)-N-(cyanomethyl)-11-methyl-14-[methyl-[rac-(2S)-4-amino-2-[[2-(4-butyl-2-methyl-phenyl)-4-methyl-pyrimidine-5-carbonyl]amino]butanoyl]amino]-10,13-dioxo-9,12-diazatricyclo[13.3.1.12,6]icosa-1(18),2(20),3,5,15(19),16-hexaene-8-carboxamide] | 0.016 | 0.26
12 | Cc1nc(-c2ccc(C3(C)CC3)cc2)ncc1C(=O)N[C@@H](CCN)C(=O)N(C)[C@@H]1C(=O)N[C@@H](C)C(=O)N[C@H](C(=O)NCC#N)Cc2ccc(OCCN)c(c2)-c2cc1ccc2OCCN (racemic) [Compound 224, rac-(8S,11S,14S)-3,18-bis(2-aminoethoxy)-N-(cyanomethyl)-11-methyl-14-[methyl-[rac-(2S)-4-amino-2-[[4-methyl-2-[4-(1-methylcyclopropyl)phenyl]pyrimidine-5-carbonyl]amino]butanoyl]amino]-10,13-dioxo-9,12-diazatricyclo[13.3.1.12,6]icosa-1(18),2(20),3,5,15(19),16-hexaene-8-carboxamide] | 0.017 | 0.13

Source: patent US20260274892A1, “MACROCYCLIC BROAD SPECTRUM ANTIBIOTICS” (RQx Pharmaceuticals, Inc., priority 2017, published 2026)
